The source of these data is patent US20060183902A1, “Dihydroindolyl methanones as alpha 1a/1d adrenoreceptor modulators for the treatment of benign prostatic hypertrophy and lower urinary tract symptoms” (priority 2005, published 2006).

For one assay, the target named is T1, α1a-AR (Homo sapiens, UniProt P35348).
T1 construct: expressed in transfected cells; host or cells: COS-7
T1 sequence (P35348 1-466): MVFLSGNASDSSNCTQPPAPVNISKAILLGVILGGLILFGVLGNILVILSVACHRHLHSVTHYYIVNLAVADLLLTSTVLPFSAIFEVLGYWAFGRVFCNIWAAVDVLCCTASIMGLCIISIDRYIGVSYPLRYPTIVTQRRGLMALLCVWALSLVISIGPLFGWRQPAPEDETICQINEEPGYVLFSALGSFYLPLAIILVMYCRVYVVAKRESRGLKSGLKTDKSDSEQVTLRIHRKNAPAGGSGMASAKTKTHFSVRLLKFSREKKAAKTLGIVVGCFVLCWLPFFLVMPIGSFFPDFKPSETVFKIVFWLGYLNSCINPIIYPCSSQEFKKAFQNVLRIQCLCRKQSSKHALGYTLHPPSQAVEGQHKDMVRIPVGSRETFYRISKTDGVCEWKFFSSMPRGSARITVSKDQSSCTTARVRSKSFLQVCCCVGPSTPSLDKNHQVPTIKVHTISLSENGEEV
Briefly: α1-Adrenergic receptor radio-ligand (125I-HEAT) binding assay, α1a subtype. As to conditions: COS-7 cell membranes transfected with α1a-AR, 125I-HEAT 50 pM; read-out: Receptor Binding, Ki α1a-AR. The method, then:
(§1) Membranes were prepared from COS-7 cells (African Green monkey kidney SV40-transformed cells) that had been transfected with one of the three α1-AR subtypes by the following method:
(§2) COS cells from ten 100 mm tissue culture plates were scraped into a 5 mL volume of TE (a mixture of 50 mM tris(hydroxymethyl)aminomethane hydrochloride (Tris-HCl) and 5 mM ethylenediaminetetraacetic acid (EDTA) at pH 7.4). The cell suspension was disrupted with a Brinkman Polytron (at a setting of 8) for 10 sec. The disrupted cells were centrifuged at 1000×g for 10 min at 4° C. Supernatants were centrifuged at 34,500×g for 20 min at 4° C. The membrane pellets were suspended in a 2 mL volume of TNE (a mixture of 50 mM Tris-HCl, 5 mM EDTA and 150 mM NaCl at pH7.4). An aliquot of the membrane suspension was stored at −70° C. until use. The protein concentration was determined using a BioRad “DC” protein assay kit following membrane solubilization with Triton X-100.
(§3) Triplicate determinations of radio-ligand binding in the presence of increasing concentrations of testing compound were made. The reagents were added to 96-well polypropylene plate wells. Each assay well contained 140 μL TNE, 25 μL ^125I-2-(β-4-hydroxyplenyl)ethylaminomethyltetralone (^125I-HEAT) (specific activity 2200 Ci/mmol, Dupont-New England Nuclear, 50 pM final), 10 μL testing compound dissolved in dimethyl sulfoxide (DMSO) (1 pM to 10 μM in half-log increments, final), and 25 μL appropriate α1-AR membrane subtype suspension in TNE (0.5 ng/μL for the α1a and α1b subtypes and 13 ng/μL for the α1d subtype). The plate was incubated at rt for 1 hr. The contents of the wells were filtered through a glass filter (type C) (GF/C) membrane Unifilter plate (Packard Instruments) using the Packard Filtermate cell harvester. The filter plates were dried in a vacuum oven for 30 min at 40° C. 25 μL Microscint 20 liquid scintillation fluid (Packard Instuments) was added to each well. The radioactive content was analyzed in the TopCount microplate scintillation counter (Packard Instruments).
(§4) The Ki values (in nM) shown in Table 1 were determined using GraphPad Prism software.

The target of a further assay is T2, α1d-AR (Homo sapiens, UniProt P25100).
T2 construct: expressed in transfected cells; host or cells: COS-7
T2 sequence (P25100 1-572): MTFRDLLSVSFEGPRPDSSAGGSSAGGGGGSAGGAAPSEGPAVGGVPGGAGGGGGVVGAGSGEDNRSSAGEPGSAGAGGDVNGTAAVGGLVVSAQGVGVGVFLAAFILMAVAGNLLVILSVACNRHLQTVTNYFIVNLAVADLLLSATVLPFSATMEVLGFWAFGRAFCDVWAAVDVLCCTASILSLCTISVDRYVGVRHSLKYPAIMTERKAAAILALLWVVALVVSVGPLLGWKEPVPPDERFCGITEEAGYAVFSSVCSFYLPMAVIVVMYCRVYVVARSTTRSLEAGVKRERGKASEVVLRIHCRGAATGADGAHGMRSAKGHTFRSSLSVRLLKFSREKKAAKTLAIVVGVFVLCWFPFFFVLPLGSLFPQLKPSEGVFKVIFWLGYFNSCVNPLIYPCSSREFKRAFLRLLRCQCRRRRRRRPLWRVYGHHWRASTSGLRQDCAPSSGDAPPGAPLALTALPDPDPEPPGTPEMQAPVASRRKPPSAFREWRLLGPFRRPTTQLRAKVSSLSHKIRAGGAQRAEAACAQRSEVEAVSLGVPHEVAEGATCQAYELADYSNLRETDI
Briefly: α1-Adrenergic receptor radio-ligand (125I-HEAT) binding assay, α1d subtype. As to conditions: COS-7 cell membranes transfected with α1d-AR, 125I-HEAT 50 pM; read-out: Receptor Binding, Ki α1d-AR. As to the method: as §1, §2, §3, §4

Another assay deals with T3, α1b-AR (Homo sapiens, UniProt P35368).
T3 construct: expressed in transfected cells; host or cells: COS-7
T3 sequence (P35368 1-520): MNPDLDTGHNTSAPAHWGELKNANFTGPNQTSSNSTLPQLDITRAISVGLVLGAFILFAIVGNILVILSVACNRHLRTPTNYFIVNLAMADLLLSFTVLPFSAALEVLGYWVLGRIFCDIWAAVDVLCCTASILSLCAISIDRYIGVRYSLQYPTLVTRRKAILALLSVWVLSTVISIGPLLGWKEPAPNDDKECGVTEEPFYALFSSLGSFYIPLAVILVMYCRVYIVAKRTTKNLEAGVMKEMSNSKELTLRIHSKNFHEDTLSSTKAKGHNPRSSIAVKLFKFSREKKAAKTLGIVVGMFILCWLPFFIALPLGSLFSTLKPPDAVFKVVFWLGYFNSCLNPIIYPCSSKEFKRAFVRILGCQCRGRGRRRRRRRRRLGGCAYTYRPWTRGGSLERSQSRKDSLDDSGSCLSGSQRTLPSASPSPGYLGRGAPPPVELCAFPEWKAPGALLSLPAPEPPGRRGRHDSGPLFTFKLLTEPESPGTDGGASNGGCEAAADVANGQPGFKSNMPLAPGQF
Briefly: α1-Adrenergic receptor radio-ligand (125I-HEAT) binding assay, α1b subtype. As to conditions: COS-7 cell membranes transfected with α1b-AR, 125I-HEAT 50 pM; read-out: Receptor Binding, Ki α1b-AR. As to the method: as §1, §2, §3, §4

Where “and” joins values, the source holds several entries; their conditions need not be identical. Equal values may be shown once.

On to `CC(C)Oc1ccccc1N1CCN(Cc2cccc(C(=O)N3CCc4cc(Cl)ccc43)c2)CC1` [Cpd 67, (5-chloro-2,3-dihydro-indol-1-yl)-{3-[4-(2-isopropoxy-phenyl)-piperazin-1-ylmethyl]-phenyl}-methanone], for which the Ki (as a rule, a dissociation constant, usually derived from enzyme kinetics or from competition with a known ligand) was 2.1 nM and 12 nM at α1a-AR; 14.7 nM and 22 nM at α1d-AR; 1140 nM and 1260 nM on α1b-AR.
With `CC(C)Oc1ccccc1N1CCN(Cc2cccc(C(=O)N3CCc4cc(NS(N)(=O)=O)ccc43)c2)CC1` [Cpd 17, N-(1-{3-[4-(2-isopropoxy-phenyl)-piperazin-1-ylmethyl]-benzoyl}-2,3-dihydro-1H-indol-5-yl)-sulfamide], the Ki amounted to 14 nM on α1a-AR, 7.6 nM at α1d-AR and 812 nM at α1b-AR.
Turning to `CC(C)Oc1ccccc1N1CCN(Cc2cccc(C(=O)N3CCc4cc(S(C)(=O)=O)ccc43)c2)CC1` [Cpd 71, {3-[4-(2-isopropoxy-phenyl)-piperazin-1-ylmethyl]-phenyl}-(5-methanesulfonyl-2,3-dihydro-indol-1-yl)-methanone], the inhibition constant (Ki) at α1a-AR was 14 nM and 17.5 nM; at α1d-AR, 16 nM and 21 nM; on α1b-AR it was 716 nM and 720 nM.
Consider `COc1ccccc1C1CCN(Cc2cccc(C(=O)N3CCc4ccc(NS(=O)(=O)c5c(F)cccc5F)cc43)c2)CC1` [Cpd 61, 2,6-difluoro-N-(1-{3-[4-(2-methoxy-phenyl)-piperidin-1-ylmethyl]-benzoyl}-2,3-dihydro-1H-indol-6-yl)-benzenesulfonamide], for which the Ki on α1a-AR came out at 15.5 nM; at α1d-AR, 2.1 nM; at α1b-AR, 152 nM.
Take `CC(C)Oc1ccccc1N1CCN(Cc2cccc(C(=O)N3CCc4cc(F)ccc43)c2)CC1` [Cpd 68, (5-fluoro-2,3-dihydro-indol-1-yl)-{3-[4-(2-isopropoxy-phenyl)-piperazin-1-ylmethyl]-phenyl}-methanone]: the Ki on α1a-AR turned out to be 13 nM; on α1d-AR, 13 nM; at α1b-AR it was 288 nM.
Regarding `CC(C)Oc1ccccc1N1CCN(Cc2cccc(C(=O)N3CCc4cc(-c5ccccc5)ccc43)c2)CC1` [Cpd 72, {3-[4-(2-isopropoxy-phenyl)-piperazin-1-ylmethyl]-phenyl}-(5-phenyl-2,3-dihydro-indol-1-yl)-methanone], the results for the Ki at α1a-AR, on α1d-AR and on α1b-AR were 15 nM, 46 nM and 154 nM, respectively.
For `COc1ccc(C(=O)Nc2ccc3c(c2)N(C(=O)c2cccc(CN4CCN(c5ccccc5OC(C)C)CC4)c2)CC3)cc1` [Cpd 42, N-(1-{3-[4-(2-isopropoxy-phenyl)-piperazin-1-ylmethyl]-benzoyl}-2,3-dihydro-1H-indol-5-yl)-4-methoxy-benzamide], the Ki on α1a-AR was determined as 3.8 nM; at α1d-AR, 5.8 nM; at α1b-AR it was 447 nM.
The matching figures for `CC(C)Oc1ccccc1N1CCN(Cc2cccc(C(=O)N3CCc4ccc(NC(=O)Nc5c(F)cccc5F)cc43)c2)CC1` [Cpd 73, 1-(2,6-difluoro-phenyl)-3-(1-{3-[4-(2-isopropoxy-phenyl)-piperazin-1-ylmethyl]-benzoyl}-2,3-dihydro-1H-indol-6-yl)-urea]: 31 nM, 1.5 nM and 208 nM.
With `COc1ccccc1C1CCN(Cc2ccc(C(=O)N3CCc4cc(N)ccc43)cc2)CC1` [Cpd 33, (5-amino-2,3-dihydro-indol-1-yl)-{4-[4-(2-methoxy-phenyl)-piperidin-1-ylmethyl]-phenyl}-methanone], the figures for the Ki on α1a-AR, on α1d-AR and on α1b-AR were 48.8 nM, 49.1 nM and 658 nM, respectively.
The like results for `COc1ccccc1CN1CCN(Cc2cccc(C(=O)N3CCc4ccccc43)c2)CC1` [Cpd 64, (2,3-dihydro-indol-1-yl)-{3-[4-(2-methoxy-benzyl)-piperazin-1-ylmethyl]-phenyl}-methanone] were, in that order, 105 nM, 101 nM and 146 nM.
For the compound `O=C(c1cccc(CN2CCN(c3ccccc3OCC(F)(F)F)CC2)c1)N1CCc2ccccc21` [Cpd 63, (2,3-dihydro-indol-1-yl)-(3-{4-[2-(2,2,2-trifluoro-ethoxy)-phenyl]-piperazin-1-ylmethyl}-phenyl)-methanone], the Ki at α1d-AR is 0.5 nM and 1.9 nM.
`CC(C)(C)OC(=O)N1CCN(Cc2cccc(C(=O)N3CCc4ccccc43)c2)CC1` [Cpd 54, 4-[3-(2,3-dihydro-indole-1-carbonyl)-benzyl]-piperazine-1-carboxylic acid tert-butyl ester]: the inhibition constant (Ki) on α1a-AR worked out at 67.5 nM.
Consider `CC(C)Oc1ccccc1N1CCN(Cc2cccc(C(=O)N3CCc4ccc(NCc5ccccc5F)cc43)c2)CC1` [Cpd 44, [6-(2-fluoro-benzylamino)-2,3-dihydro-indol-1-yl]-{3-[4-(2-isopropoxy-phenyl)-piperazin-1-ylmethyl]-phenyl}-methanone], for which the results for the Ki at α1a-AR and on α1d-AR were 1.3 nM and 4.2 nM, respectively.
For `CCCCCCCCc1ccc(CNc2ccc3c(c2)N(C(=O)c2cccc(CN4CCN(c5ccccc5OC(C)C)CC4)c2)CC3)cc1` [Cpd 10, {3-[4-(2-isopropoxy-phenyl)-piperazin-1-ylmethyl]-phenyl}-[6-(4-octyl-benzylamino)-2,3-dihydro-indol-1-yl]-methanone], the Ki is 836 nM on α1a-AR and 250 nM at α1d-AR.
`COc1ccc(OC)c2c1CC(Nc1ccc3c(c1)N(C(=O)c1cccc(CN4CCN(c5ccccc5OC(C)C)CC4)c1)CC3)C2` [Cpd 29, [6-(4,7-dimethoxy-indan-2-ylamino)-2,3-dihydro-indol-1-yl]-{3-[4-(2-isopropoxy-phenyl)-piperazin-1-ylmethyl]-phenyl}-methanone]: the inhibition constant (Ki) is 20.8 nM at α1a-AR and 847 nM at α1b-AR.
Regarding `CC(C)Oc1ccccc1N1CCN(Cc2cccc(C(=O)N3CCc4cc(NC(=O)Nc5ccc(Cl)cc5Cl)ccc43)c2)CC1` [Cpd 14, 1-(2,4-dichloro-phenyl)-3-(1-{3-[4-(2-isopropoxy-phenyl)-piperazin-1-ylmethyl]-benzoyl}-2,3-dihydro-1H-indol-5-yl)-urea], the Ki on α1a-AR was determined as 22 nM; at α1d-AR it was 4 nM.
